Assay results from patent publication US10167262B2, “Herbicidal substituted 3-arylpyrazoles” (FMC CORPORATION, priority 2014, dated 2019).
Several values for one entry are separate records, joined by “and”; a condition that tells them apart may be missing. Identical values can stand only once.

Experiments:
Assay type in all cases: in vivo
[1] = tested on: corn (ZEAMD, Zea mays); assay: Test H postemergence mixture test of compound 39 with commercial herbicides, observed and Colby expected effect 0-100; settings: commercial herbicide alone, 14 days after treatment
Description: (§1) This test evaluated the effect of mixtures of compound 39 with three commercial herbicides on five plant species. Seeds of plant species selected from corn (ZEAMD, Zea mays), soybean (GLXMA, Glycine max), palmer pigweed (AMAPA, Amaranthus palmeri), waterhemp (common waterhemp, AMATA, Amaranthus rudis), and Kochia (KCHSC, Kochia scoparia) were planted in pots containing Redi-Earth® planting medium (Scotts Company, 14111 Scottslawn Road, Marysville, Ohio 43041) comprising spaghnum peat moss, vermiculite, wetting agent and starter nutrients and treated with postemergence applications of test chemicals formulated in a non-phytotoxic solvent mixture which included a surfactant and applied using a volume of 299 L/ha. Each treatment was replicated four times. Treated plants and controls were maintained in a greenhouse using supplemental lighting to maintain a photoperiod of about 16 h; daytime and nighttime temperatures were about 24-30° C. and 19-21° C., respectively. Nutrients were applied using a balanced fertilizer applied through the watering system. At 14 days after treatment, all species were compared to controls and visually evaluated. Plant response ratings were calculated as the mean of the four replicates, are summarized in Tables H1 through H6, and are based on a scale of 0 to 100 where 0 is no effect and 100 is complete control. A dash (-) response means no test result.
(§2) Colby's Equation was used to determine the herbicidal effects expected from the mixtures. Colby's Equation (Colby, S. R. “Calculating Synergistic and Antagonistic Responses of Herbicide Combinations,” Weeds, 15(1), pp 20-22 (1967)) calculates the expected additive effect of herbicidal mixtures and for two active ingredients is of the form: Pa+b=Pa+Pb−(PaPb/100) • where • Pa+b is the percentage effect of the mixture expected from additive contribution of the individual components: • Pa is the observed percentage effect of the first active ingredient at the same use rate as in the mixture, and • Pb is the observed percentage effect of the second active ingredient at the same use rate as in the mixture. In the following Tables, rates are shown in grams of active ingredient per hectare (g a.i./ha); “Obsd.” is the observed effect. “Exp.” is the expected effect calculated from Colby's Equation.

[2] = tested on: waterhemp (common waterhemp, AMATA, Amaranthus rudis); assay: as above; settings: commercial herbicide alone, 14 days after treatment
Description: as §1, §2

[3] = tested on: Kochia (KCHSC, Kochia scoparia); assay: as above; settings: commercial herbicide alone, 14 days after treatment
Description: as §1, §2

[4] = tested on: palmer pigweed (AMAPA, Amaranthus palmeri); assay: as above; settings: commercial herbicide alone, 14 days after treatment
Description: as §1, §2

[5] = tested on: soybean (GLXMA, Glycine max); assay: as above; settings: commercial herbicide alone, 14 days after treatment
Description: as §1, §2

[6] = tested on: barnyardgrass (Echinochloa crus-galli); assay: Test B flooded paddy test, plant response rating 0-100; settings: Flood, 250 g ai/ha; scale 0 to 100 (0 no effect, 100 complete control); 13 to 15 days
Summary of the method: (§3)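 Test compounds are applied straight into paddy water held 3 cm above the soil surface, with that flood maintained for the whole test. After 13 to 15 days in the greenhouse, each species is scored visually relative to controls.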

[7] = tested on: rice (Oryza sativa); assay: as above; settings: Flood, 250 g ai/ha; scale 0 to 100 (0 no effect, 100 complete control); 13 to 15 days
Summary of the method: as §3

[8] = tested on: ducksalad (Heteranthera limosa); assay: as above; settings: Flood, 250 g ai/ha; scale 0 to 100 (0 no effect, 100 complete control); 13 to 15 days
Summary of the method: as §3

[9] = tested on: sedge, umbrella (small-flower umbrella sedge, Cyperus difformis); assay: as above; settings: Flood, 250 g ai/ha; scale 0 to 100 (0 no effect, 100 complete control); 13 to 15 days
Summary of the method: as §3

[10] = tested on: giant foxtail (Setaria faberii); assay: Test A pre-/postemergence greenhouse herbicide test, visual injury rating 0-100; settings: 1000 g ai/ha
Summary of the method: (§4)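 Planting in a loam and sand mixture preceded a directed preemergence soil spray; postemergence spray was applied concurrently to one- to two-leaf plants. After roughly 10 days under glass, injury is scored visually against untreated controls, 0–100.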

[11] = tested on: barnyardgrass (Echinochloa crus-galli); assay: as above; settings: 1000 g ai/ha
Summary of the method: as §4

[12] = tested on: morningglory (Ipomoea spp.); assay: as above; settings: 1000 g ai/ha
Summary of the method: as §4

[13] = tested on: velvetleaf (Abutilon theophrasti); assay: as above; settings: 1000 g ai/ha
Summary of the method: as §4

[14] = tested on: pigweed (Amaranthus retroflexus); assay: as above; settings: 1000 g ai/ha
Summary of the method: as §4

[15] = tested on: corn (Zea mays); assay: as above; settings: 1000 g ai/ha
Summary of the method: as §4

[16] = tested on: wheat (Triticum aestivum); assay: as above; settings: 1000 g ai/ha
Summary of the method: as §4

[17] = tested on: large (Lg) crabgrass (Digitaria sanguinalis); assay: as above; settings: 1000 g ai/ha
Summary of the method: as §4

Structure (SMILES) | Plant response rating, Barnyardgrass [6] | Plant response rating, Rice [7] | Plant response rating, Ducksalad [8] | Plant response rating, Sedge, Umbrella [9] | Plant response rating (0 to 100 scale), Foxtail, Giant ([10]; Postemergence) | Plant response rating (0 to 100 scale), Foxtail, Giant ([10]; Preemergence) | Plant response rating (0 to 100 scale), Barnyardgrass ([11]; Postemergence) | Plant response rating (0 to 100 scale), Barnyardgrass ([11]; Preemergence) | Plant response rating (0 to 100 scale), Morningglory ([12]; Postemergence) | Plant response rating (0 to 100 scale), Morningglory ([12]; Preemergence) | Plant response rating (0 to 100 scale), Velvetleaf ([13]; Postemergence) | Plant response rating (0 to 100 scale), Velvetleaf ([13]; Preemergence) | Plant response rating (0 to 100 scale), Pigweed ([14]; Postemergence) | Plant response rating (0 to 100 scale), Pigweed ([14]; Preemergence) | Plant response rating (0 to 100 scale), Corn ([15]; Postemergence) | Plant response rating (0 to 100 scale), Corn ([15]; Preemergence) | Plant response rating (0 to 100 scale), Wheat ([16]; Postemergence) | Plant response rating (0 to 100 scale), Wheat ([16]; Preemergence) | Plant response rating (0 to 100 scale), Crabgrass, Large ([17]; Postemergence) | Plant response rating (0 to 100 scale), Crabgrass, Large ([17]; Preemergence) | other results
CCOC(=O)c1ccccc1S(=O)(=O)NC(=O)Nc1nc(Cl)cc(OC)n1 [Chlorimuron-ethyl, chlorimuron-ethyl] |  |  |  |  |  |  |  |  |  |  |  |  |  |  |  |  |  |  |  |  | ZEAMD Obsd. (observed effect) ([1]; 0.25 g a.i./ha): 0; ZEAMD Obsd. (observed effect) ([1]; 1 g a.i./ha): 33; AMATA Obsd. (observed effect) ([2]; 0.25 g a.i./ha): 77; AMATA Obsd. (observed effect) ([2]; 1 g a.i./ha): 76; KCHSC Obsd. (observed effect) ([3]; 0.25 g a.i./ha): 88; KCHSC Obsd. (observed effect) ([3]; 1 g a.i./ha): 97; AMAPA Obsd. (observed effect) ([4]; 0.25 g a.i./ha): 65; AMAPA Obsd. (observed effect) ([4]; 1 g a.i./ha): 86; GLXMA Obsd. (observed effect) ([5]; 0.25 g a.i./ha): 0; GLXMA Obsd. (observed effect) ([5]; 1 g a.i./ha): 0
Clc1cc(Cl)cc(-c2n[nH]cc2C(=NN2CCOCC2)c2ccccc2)c1 [Compound 55] | 0 | 0 | 0 | 0 | 0 | 0 | 0 | 0 | 0 | 0 | 100 | 80 | 100 | 90 | 0 | 0 | 0 | 0 | 0 | 0 | 
Clc1cccc(NN=C(c2ccccc2)c2c[nH]nc2-c2cc(Cl)cc(Cl)c2)c1 [Compound 56] | 0 | 0 | 0 | 0 | 0 | 0 | 0 | 0 | 0 | 0 | 90 | 90 | 90 | 100 | 0 | 0 | 0 | 0 | 0 | 0 | 
Clc1ccc(NN=C(c2ccccc2)c2c[nH]nc2-c2cc(Cl)cc(Cl)c2)cc1 [Compound 65] | 0 | 0 | 0 | 0 | 0 | 0 | 0 | 0 | 30 | 0 | 90 | 80 | 90 | 80 | 0 | 0 | 0 | 0 | 0 | 0 | 
N=C(c1ccccc1)c1c[nH]nc1-c1cc(F)cc(F)c1 [Compound 67] | 0 | 0 | 0 | 0 | 0 | 0 | 0 | 0 | 0 | 0 | 90 | 100 | 80 | 100 | 0 | 0 | 0 | 0 | 0 | 0 | 
CS(=O)(=O)c1ccc(C(=O)C2C(=O)CCCC2=O)c([N+](=O)[O-])c1 [Mesotrione, mesotrione] |  |  |  |  |  |  |  |  |  |  |  |  |  |  |  |  |  |  |  |  | ZEAMD Obsd. (observed effect) ([1]; 4 g a.i./ha): 0; AMATA Obsd. (observed effect) ([2]; 4 g a.i./ha): 79 and 92; KCHSC Obsd. (observed effect) ([3]; 4 g a.i./ha): 79 and 72; AMAPA Obsd. (observed effect) ([4]; 4 g a.i./ha): 78 and 72; GLXMA Obsd. (observed effect) ([5]; 4 g a.i./ha): 64 and 62
COc1cc(OC)nc(NC(=O)NS(=O)(=O)c2ncccc2C(=O)N(C)C)n1 [Nicosulfuron, nicosulfuron] |  |  |  |  |  |  |  |  |  |  |  |  |  |  |  |  |  |  |  |  | ZEAMD Obsd. (observed effect) ([1]; 0.25 g a.i./ha): 0; ZEAMD Obsd. (observed effect) ([1]; 1 g a.i./ha): 0; AMATA Obsd. (observed effect) ([2]; 0.25 g a.i./ha): 63; AMATA Obsd. (observed effect) ([2]; 1 g a.i./ha): 78; KCHSC Obsd. (observed effect) ([3]; 0.25 g a.i./ha): 43; KCHSC Obsd. (observed effect) ([3]; 1 g a.i./ha): 89; AMAPA Obsd. (observed effect) ([4]; 0.25 g a.i./ha): 3; AMAPA Obsd. (observed effect) ([4]; 1 g a.i./ha): 100; GLXMA Obsd. (observed effect) ([5]; 0.25 g a.i./ha): 0; GLXMA Obsd. (observed effect) ([5]; 1 g a.i./ha): 51
